# Results: US6737383B1, “Herbicidal oxadiazolidines” (priority 1999, dated 2004)
# Assays:
# [1] = test system: corn; test: Test B pre/postemergence corn; type: in vivo, Zea mays
# Procedure, shortened: (§1)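 Response is a visual 0-to-10 score relative to untreated plants, where 0 means no effect and 10 means complete control, taken twelve to sixteen days after application. Treatments went onto soil at planting and onto foliage of 1- to 4-leaf plants, using a surfactant-containing non-phytotoxic solvent.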
# [2] = test system: crabgrass; test: Test B pre/postemergence crabgrass; type: in vivo, Digitaria sanguinalis
# Procedure, shortened: as §1
# [3] = test system: wheat; test: Test B pre/postemergence wheat; type: in vivo, Triticum aestivum
# Procedure, shortened: as §1
# [4] = test system: surinam grass; test: Test B pre/postemergence surinam grass; type: in vivo, Brachiaria decumbens
# Procedure, shortened: as §1
# [5] = test system: pigweed; test: Test B pre/postemergence pigweed; type: in vivo, Amaranthus retroflexus
# Procedure, shortened: as §1
# [6] = test system: bamyardgrass; test: Test B flood test barnyardgrass; type: in vivo, Echinochloa crus-galli
# Procedure, shortened: (§2)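 Read-out is a visual response score from 0 (no effect) to 10 (complete control), assigned by comparison with untreated controls. Treatment was applied at the 2-leaf stage, and plants stayed in the greenhouse for twelve to sixteen days before scoring.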
# [7] = test system: purple nutsedge; test: Test B pre/postemergence purple nutsedge; type: in vivo, Cyperus rotundus
# Procedure, shortened: as §1
# [8] = test system: duck salad; test: Test B flood test duck salad; type: in vivo, Heteranthera limosa
# Procedure, shortened: as §2
# [9] = test system: rape; test: Test B pre/postemergence rape; type: in vivo, Brassica napus
# Procedure, shortened: as §1
# [10] = test system: blackgrass; test: Test B pre/postemergence blackgrass; type: in vivo, Alopecurus myosuroides
# Procedure, shortened: as §1
# [11] = test system: velvetleaf; test: Test B pre/postemergence velvetleaf; type: in vivo, Abutilon theophrasti
# Procedure, shortened: as §1
# [12] = test system: sugar beet; test: Test B pre/postemergence sugar beet; type: in vivo, Beta vulgaris
# Procedure, shortened: as §1
# [13] = test system: soybean; test: Test B pre/postemergence soybean; type: in vivo, Glycine max
# Procedure, shortened: as §1
# [14] = test system: morningglory; test: Test B pre/postemergence morningglory; type: in vivo, Ipomoea hederacea
# Procedure, shortened: as §1
# [15] = test system: smallflower flatsedge; test: Test B flood test smallflower flatsedge; type: in vivo, Cyperus difformis
# Procedure, shortened: as §2
# [16] = test system: cocklebur; test: Test B pre/postemergence cocklebur; type: in vivo, Xanthium strumarium
# Procedure, shortened: as §1
# [17] = test system: bedstraw; test: Test B pre/postemergence bedstraw; type: in vivo, Galium aparine; conditions: Postemergence; for Plant response rating, Bedstraw: scale 0 to 10, 0 is no effect, 10 is complete control; for Bedstraw plant response rating: scale of 0 to 10 where 0 is no effect and 10 is complete control
# Procedure, shortened: as §1
# [18] = test system: giant foxtail; test: Test B pre/postemergence giant foxtail; type: in vivo, Setaria faberii
# Procedure, shortened: as §1
# [19] = test system: rice; test: Test B flood test rice; type: in vivo, Oryza sativa
# Procedure, shortened: as §2
# [20] = test system: wild oat; test: Test B pre/postemergence wild oat; type: in vivo, Avena fatua
# Procedure, shortened: as §1
# [21] = Postemergence, Rate 125 g/ha, scale 0 to 10, 0 is no effect, 10 is complete control
# [22] = Postemergence, Rate 250 g/ha, scale 0 to 10, 0 is no effect, 10 is complete control
# [23] = Postemergence, Rate 500 g/ha, scale of 0 to 10 where 0 is no effect and 10 is complete control
# [24] = Preemergence, Rate 62 g/ha, scale 0 to 10 (0 no effect, 10 complete control)
# [25] = Preemergence, Rate 125 g/ha, scale of 0 to 10 where 0 is no effect and 10 is complete control
# [26] = Preemergence, Rate 250 g/ha, scale 0 to 10, 0 is no effect, 10 is complete control
# [27] = Preemergence, Rate 500 g/ha, scale 0 to 10, 0 is no effect, 10 is complete control
# [28] = Rate 62 g/ha, Postemergence, scale of 0 to 10 where 0 is no effect and 10 is complete control
# [29] = Preemergence, Rate 250 g/ha, scale of 0 to 10 where 0 is no effect and 10 is complete control
# [30] = Rate 62 g/ha, flood test species, Pre-emergence, visual evaluation after twelve to sixteen days
# [31] = Rate 125 g/ha, under heading Pre-emergence, flood test species, visual evaluation after twelve to sixteen days
# [32] = Rate 250 g/ha, Pre-emergence, flood-test species, scale 0 to 10, 0 is no effect, 10 is complete control
# [33] = Rate 500 g/ha, Pre-emergence, flood test species, scale 0 to 10 (0 no effect, 10 complete control)
compound,measurement,setting,value
CC(C)N(C(=O)n1oc(=O)n(C)c1=O)c1ccccc1 [Compound 409],"Plant response rating, Corn",[1]; [21],5
same,"Plant response rating, Corn",[1]; [22],7
same,Corn plant response rating,[1]; [23],7
same,"Plant response rating, Corn",[1]; [24],7
same,"Plant response rating, Corn",[1]; [25],8
same,Corn plant response rating,[1]; [26],8
same,Corn plant response rating,[1]; [27],10
same,Corn plant response rating,[1]; [28],0
same,"Plant response rating, Crabgrass",[2]; [21],9
same,"Plant response rating, Crabgrass",[2]; [22],9
same,Crabgrass plant response rating,[2]; [23],9
same,"Plant response rating, Crabgrass",[2]; [24],9
same,"Plant response rating, Crabgrass",[2]; [25],9
same,Crabgrass plant response rating,[2]; [26],10
same,Crabgrass plant response rating,[2]; [27],10
same,Crabgrass plant response rating,[2]; [28],6
same,Wheat plant response rating,[3]; [23],7
same,"Plant response rating, Wheat",[3]; [24],4
same,"Plant response rating, Wheat",[3]; [25],8
same,Wheat plant response rating,[3]; [26],9
same,Wheat plant response rating,[3]; [27],10
same,"Plant response rating, B. signalgrass",[4]; [21],5
same,"Plant response rating, B. signalgrass",[4]; [22],8
same,B. signalgrass plant response rating,[4]; [23],9
same,"Plant response rating, B. signalgrass",[4]; [24],0
same,"Plant response rating, B. signalgrass",[4]; [25],4
same,B. signalgrass plant response rating,[4]; [29],7
same,B. signalgrass plant response rating,"[4]; Preemergence, Rate 500 g/ha, scale of 0 to 10 where 0 is no effect and 10 is complete control",9
same,B. signalgrass plant response rating,[4]; [28],3
same,"Plant response rating, Redroot pigweed",[5]; [22],4
same,Redroot pigweed plant response rating,[5]; [23],5
same,"Plant response rating, Redroot pigweed",[5]; [24],7
same,"Plant response rating, Redroot pigweed",[5]; [25],8
same,Redroot pigweed plant response rating,[5]; [26],8
same,Redroot pigweed plant response rating,[5]; [27],10
same,"Plant response rating, Barnyardgrass (0 to 10 scale, 0 is no effect, 10 is complete control)",[6]; [30],1
same,"Barnyardgrass plant response rating (0 to 10 scale, 0 is no effect, 10 is complete control)",[6]; [31],2
same,Barnyardgrass plant response rating,[6]; [32],3
same,Barnyardgrass plant response rating,[6]; [33],3
same,"Plant response rating, Nutsedge",[7]; [22],0
same,Nutsedge plant response rating,[7]; [23],0
same,Nutsedge plant response rating,[7]; [26],8
same,Nutsedge plant response rating,[7]; [27],8
same,"Plant response rating, Ducksalad (0 to 10 scale, 0 is no effect, 10 is complete control)",[8]; [30],0
same,"Ducksalad plant response rating (0 to 10 scale, 0 is no effect, 10 is complete control)",[8]; [31],0
same,Ducksalad plant response rating,[8]; [32],0
same,Ducksalad plant response rating,[8]; [33],0
same,"Plant response rating, Rape",[9]; [22],3
same,"Plant response rating, Rape",[9]; [24],0
same,"Plant response rating, Rape",[9]; [25],0
same,Rape plant response rating,[9]; [26],4
same,Rape plant response rating,[9]; [27],6
same,"Plant response rating, Blackgrass",[10]; [21],8
same,"Plant response rating, Blackgrass",[10]; [22],9
same,Blackgrass plant response rating,[10]; [23],10
same,"Plant response rating, Blackgrass",[10]; [24],4
same,"Plant response rating, Blackgrass",[10]; [25],7
same,Blackgrass plant response rating,[10]; [29],10
same,Blackgrass plant response rating,[10]; [27],10
same,Blackgrass plant response rating,[10]; [28],6
same,"Plant response rating, Velvetleaf",[11]; [22],0
same,Velvetleaf plant response rating,[11]; [23],0
same,"Plant response rating, Velvetleaf",[11]; [24],2
same,"Plant response rating, Velvetleaf",[11]; [25],5
same,Velvetleaf plant response rating,[11]; [26],6
same,Velvetleaf plant response rating,[11]; [27],8
same,"Plant response rating, Sugarbeets",[12]; [22],0
same,Sugarbeets plant response rating,[12]; [23],0
same,"Plant response rating, Sugarbeets",[12]; [24],2
same,"Plant response rating, Sugarbeets",[12]; [25],7
same,Sugarbeets plant response rating,[12]; [26],8
same,Sugarbeets plant response rating,[12]; [27],9
same,"Plant response rating, Soybean",[13]; [22],5
same,Soybean plant response rating,[13]; [23],5
same,"Plant response rating, Soybean",[13]; [24],0
same,"Plant response rating, Soybean",[13]; [25],0
same,Soybean plant response rating,[13]; [26],1
same,Soybean plant response rating,[13]; [27],8
same,"Plant response rating, Morningglory",[14]; [22],9
same,Morningglory plant response rating,[14]; [23],10
same,"Plant response rating, Morningglory",[14]; [24],0
same,"Plant response rating, Morningglory",[14]; [25],2
same,Morningglory plant response rating,[14]; [26],5
same,Morningglory plant response rating,[14]; [27],5
same,"Plant response rating, S. Flatsedge (0 to 10 scale, 0 is no effect, 10 is complete control)",[15]; [30],0
same,"S. Flatsedge plant response rating (0 to 10 scale, 0 is no effect, 10 is complete control)",[15]; [31],0
same,S. Flatsedge plant response rating,[15]; [32],2
same,S. Flatsedge plant response rating,[15]; [33],2
same,"Plant response rating, Cocklebur",[16]; [21],0
same,Cocklebur plant response rating,[16]; [23],1
same,"Plant response rating, Cocklebur",[16]; [24],0
same,"Plant response rating, Cocklebur",[16]; [25],0
same,Cocklebur plant response rating,[16]; [27],2
same,Cocklebur plant response rating,[16]; [28],0
same,"Plant response rating, Bedstraw",[17]; Rate 125 g/ha,2
same,"Plant response rating, Bedstraw",[17]; Rate 250 g/ha,2
same,Bedstraw plant response rating,[17]; Rate 500 g/ha,5
same,Bedstraw plant response rating,[17]; Rate 62 g/ha,0
same,"Plant response rating, Giant foxtail",[18]; [21],8
same,"Plant response rating, Giant foxtail",[18]; [22],9
same,Giant foxtail plant response rating,[18]; [23],9
same,"Plant response rating, Giant foxtail",[18]; [24],9
same,"Plant response rating, Giant foxtail",[18]; [25],10
same,Giant foxtail plant response rating,[18]; [26],10
same,Giant foxtail plant response rating,[18]; [27],10
same,Giant foxtail plant response rating,[18]; [28],8
same,"Plant response rating, Rice (0 to 10 scale, 0 is no effect, 10 is complete control)",[19]; [30],0
same,"Rice plant response rating (0 to 10 scale, 0 is no effect, 10 is complete control)",[19]; [31],0
same,Rice plant response rating,[19]; [32],0
same,Rice plant response rating,[19]; [33],0
same,Wild oats plant response rating,[20]; [23],4
same,"Plant response rating, Wild oats",[20]; [24],0
same,"Plant response rating, Wild oats",[20]; [25],5
same,Wild oats plant response rating,[20]; [26],7
same,Wild oats plant response rating,[20]; [27],8
